Source: US6395735B2, “Pharmaceutical compounds” (Eli Lilly and Company, priority 1997, dated 2002)

Experiments:
human m1 receptor = target: T1, human m1 receptor (Homo sapiens, UniProt P11229); test: m1 primary assay: arachidonic acid release in CHO-m1 cells; format: cell-based
T1 construct: expressed in transfected cells; host or cells: CHO (Chinese hamster) cells
T1 sequence (P11229 1-460): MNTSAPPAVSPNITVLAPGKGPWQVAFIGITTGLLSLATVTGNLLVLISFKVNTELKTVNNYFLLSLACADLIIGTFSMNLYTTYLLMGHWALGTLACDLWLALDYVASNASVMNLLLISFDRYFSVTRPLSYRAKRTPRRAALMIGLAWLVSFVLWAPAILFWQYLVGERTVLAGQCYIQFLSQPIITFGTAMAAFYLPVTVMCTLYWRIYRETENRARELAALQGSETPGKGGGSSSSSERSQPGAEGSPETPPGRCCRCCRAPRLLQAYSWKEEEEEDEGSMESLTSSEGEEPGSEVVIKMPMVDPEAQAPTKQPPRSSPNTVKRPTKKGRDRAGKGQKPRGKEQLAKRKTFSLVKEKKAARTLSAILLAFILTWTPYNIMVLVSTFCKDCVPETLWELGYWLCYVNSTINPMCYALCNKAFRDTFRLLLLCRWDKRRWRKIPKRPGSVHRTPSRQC
Procedure: CHO (Chinese hamster transfected with the human m1 receptor (CHO-m1) were grown to confluency in flasks using Dulbecco's Modified Eagle Medium (DMEM) containing 10% fetal bovine serum. Cells were detached with 0.05% trypsin, 0.53 mM EDTA. Cells were collected after centrifugation in a Beckman centrifuge at 1000 rpm for 10 minutes, diluted with culture medium (400,000 cells/ml) Aarachidonic acid was added to the cell solution at a 1:2000 ratio of a 1 mCi/ml stock and cells were plated at 40,000 cells per well into 96 well plates and incubated for 18 to 24 hours at 37 C and 5% CO2. Following the incubation, the medium was removed and the cells were washed with D-ME medium containing 2 mg/mL of fatty acid free BSA (250 L/well). The test compound of interest was diluted in D-ME-BSA and added to each well (150 L/well), incubated for 120 minutes at 37 C in 5% CO2. 80 µL of supernatant was transferred to Wallac 96 well plates containing 110 µL/well of Supermax scintillation cocktail at pH 9.0. Plates were counted in a Wallae microbeta counter.
Representative results from the m1 primary assay are as follows: […]

A9L-m1 = target: T2, A9L-m1 (Homo sapiens, UniProt P11229); test: m1 secondary assay: PI stimulation in A9L-m1; format: cell-based; details: for Emax: A9L-m1, relative to carbachol, read-out: Pl stim. A9L-m1 % Max of carbachol; for EC50: A9L-m1, read-out: ED-50 Pl stim A9L-m1, nm
T2 sequence (P11229 1-460): T1 sequence (P11229 1-460)

Row | Max. % activity @ 5 μM (human m1 receptor) | Compound | Emax (A9L-m1) | EC50 (A9L-m1)
1 | 57.4% | CN(C)/C=N/c1ccc2c(c1)[C@@H](NC(=O)c1ccc(Cl)cc1)[C@H](O)C2 [Compound 118] |  | 
2 | 66.4% | O=C(N[C@@H]1c2cc(/N=C/N3CCOCC3)ccc2C[C@H]1O)c1ccc(-c2ccccc2)cc1 [Compound 119] |  | 
3 | 92.5% | O=C(N[C@@H]1c2cc(/N=C/N3CCCC3)ccc2C[C@H]1O)c1ccc(-c2ccccc2)cc1 [Compound 120] |  | 
4 | 45.4% | O=C(N[C@@H]1c2cc(/N=C/N3CCCC3)ccc2C[C@H]1O)c1ccc(Cl)c(Cl)c1 [Compound 121] |  | 
5 | 80.9% | O=C(NC1c2cc(/N=C/N3CCCC3)ccc2C[C@H]1O)c1ccc(Cl)cc1 (some centres unmarked) [Compound 122] |  | 
6 | 76.7% | O=C(NC1c2cc(/N=C/N3CCCC3)ccc2CC1O)c1cccc(C(F)(F)F)c1 (centres unmarked) [Compound 123] |  | 
7 | 82.2% | C/C(=N\c1ccc2c(c1)C(NC(=O)c1cccc(C(F)(F)F)c1)C(O)C2)N(C)C (centres unmarked) [Compound 124] |  | 
8 | 114.0% | CN1CCC/C1=N\c1ccc2c(c1)C(NC(=O)c1ccc(-c3ccccc3)cc1)[C@H](O)C2 (some centres unmarked) [Compound 125] |  | 
9 | 102.2% | CN(C)/C=N/c1ccc2c(c1)C(NC(=O)c1cccc(C(F)(F)F)c1)C(O)C2.Cl (centres unmarked) [Compound 126] |  | 
10 | 69.8% | CN(C)/C=N/c1ccc2c(c1)C(NC(=O)c1ccc(Cl)c(Cl)c1)C(O)C2.Cl (centres unmarked) [Compound 127] |  | 
11 |  | O=C(NC1c2cc(/N=C/N3CCCC3)ccc2C[C@@H]1O)c1ccc(F)c(Br)c1 (some centres unmarked) [Compound 131] | 70.5% | 43.6 nM
12 |  | Cc1ccc(C(=O)NC2c3cc(/N=C/N4CCCC4)ccc3C[C@@H]2O)cc1Br (some centres unmarked) [Compound 132] | 59% | 183 nM
13 |  | O=C(NC1c2cc(/N=C/N3CCCC3)ccc2C[C@@H]1O)c1ccc(F)c(Cl)c1 (some centres unmarked) [Compound 133] | 40% | 190 nM
14 | 75.9% | O=C(NC1c2cc(/N=C/N3CCCC3)ccc2C[C@H]1O)c1ccc(-c2ccccc2)cc1 (some centres unmarked) [Compound 134] |  | 
